Data set [1] is described as follows: Inhibition of Plasmodium falciparum HGXPRT using PRib-PP as substrate by Hanes-plot based method.
Data set [2] in a line: Selectivity index, ratio of Ki for human HGPRT to Ki for Plasmodium falciparum HGXPRT. It counts as toxicity.
Data set [3] can be described thus: Inhibition of Plasmodium vivax HGPRT using PRib-PP as substrate by Hanes-plot based method.
The target of data set [4] is T1, Hypoxanthine-guanine phosphoribosyltransferase (Homo sapiens, UniProt P00492).
T1 sequence (P00492 whole entry): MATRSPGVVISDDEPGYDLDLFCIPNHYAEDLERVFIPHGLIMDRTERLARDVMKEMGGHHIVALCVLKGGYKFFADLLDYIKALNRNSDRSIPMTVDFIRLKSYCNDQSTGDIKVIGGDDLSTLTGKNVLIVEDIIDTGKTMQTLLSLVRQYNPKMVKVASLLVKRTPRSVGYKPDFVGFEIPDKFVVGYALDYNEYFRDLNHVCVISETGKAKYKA
As to the kind of experiment: Inhibition of human HGPRT using PRib-PP as substrate by Hanes-plot based method.

Data set [5] is described as follows: Selectivity index, ratio of Ki for human HGPRT to Ki for Plasmodium vivax HGPRT. It counts as toxicity.

Experimental findings from ChEMBL document CHEMBL4814069, “Nucleotide analogues containing a pyrrolidine, piperidine or piperazine ring: Synthesis and evaluation of inhibition of plasmodial and human 6-oxopurine phosphoribosyltransferases and in vitro antimalarial activity” (Eur J Med Chem, 2021) are described below.

What is called Ki is a measure of affinity in units of concentration, obtained from inhibition or displacement. Lower therefore signals a stronger hold on the target.

With `Nc1nc2c(ncn2[C@H]2CCN(C(=O)CP(=O)(O)O)C2)c(=O)[nH]1`, the Ki turned out to be 0.4 µM in data set [1], 2.6 µM in data set [3] and 73 µM in data set [4]. Besides, the results for the “Ratio Ki” value in data set [2] and in data set [5] were 182 and 28, respectively.
For the molecule `O=c1[nH]cnc2c1ncn2CCN(CCOCCP(=O)(O)O)CCP(=O)(O)O`, the Ki in data set [1] is 0.2 µM; in data set [3], 0.04 µM.
For `Nc1nc2c(ncn2CCN(CCOCCP(=O)(O)O)CCP(=O)(O)O)c(=O)[nH]1`, the Ki came out at 0.19 µM in data set [1] and 0.03 µM in data set [3]. Also, the “Ratio Ki” value in data set [2] amounted to 0.45; in data set [5], 2.725.
As for `Nc1nc2c(ncn2CC2CCCN(CP(=O)([O-])[O-])C2)c(=O)[nH]1.[Na+].[Na+]` (centres undefined), the Ki in data set [1] was determined as 2 µM; in data set [3], 29 µM; in data set [4], 7 µM. For the same molecule, the “Ratio Ki” value is reported as 3.5 in data set [2] and 0.24 in data set [5].
As for `Nc1nc2c(ncn2CC2CN(CCP(=O)([O-])[O-])CCN2CCP(=O)([O-])[O-])c(=O)[nH]1.[Na+].[Na+].[Na+].[Na+]` (centres undefined), the Ki came out at 2 µM in data set [1], 6 µM in data set [3] and 0.15 µM in data set [4]. The entries for the “Ratio Ki” value in data set [2] and in data set [5] were 0.075 and 0.025, respectively.
Regarding `O=c1[nH]cnc2c1ncn2CC1CN(CCP(=O)([O-])[O-])CCN1CCP(=O)([O-])[O-].[Na+].[Na+].[Na+].[Na+]` (centres undefined), the results for the Ki in data set [1], in data set [3] and in data set [4] were 3 µM, 37 µM and 0.43 µM, respectively. Also, the “Ratio Ki” value is reported as 0.14 in data set [2] and 0.012 in data set [5].
On to `O=c1[nH]cnc2c1ncn2C[C@@H]1CCCN1CCP(=O)([O-])[O-].[Na+].[Na+]`, for which the Ki was 44 µM in data set [1], greater than 50 µM in data set [3] and greater than 50 µM in data set [4]. In addition, the “Ratio Ki” value in data set [2] was greater than 1.1.
Turning to `Nc1nc2c(ncn2C[C@@H]2CCCN2CCP(=O)([O-])[O-])c(=O)[nH]1.[Na+].[Na+]`, the values for the Ki in data set [1], in data set [3] and in data set [4] were 5 µM, 20 µM and 9 µM, respectively. The figures for the “Ratio Ki” value in data set [2] and in data set [5] were 1.8 and 0.45, respectively.
For `Nc1nc2c(ncn2C[C@H]2CCCN2CCP(=O)([O-])[O-])c(=O)[nH]1.[Na+].[Na+]`, the Ki in data set [1] is 30 µM; in data set [3] it was 39 µM; in data set [4] it was greater than 50 µM. Also, the entries for the “Ratio Ki” value in data set [2] and in data set [5] were greater than 1.7 and greater than 1.3, respectively.
Regarding `O=c1[nH]cnc2c1ncn2C[C@H]1CCCN1CCP(=O)([O-])[O-].[Na+].[Na+]`, the values for the Ki in data set [1], in data set [3] and in data set [4] were 15 µM, greater than 50 µM and greater than 50 µM, respectively. In addition, the “Ratio Ki” value in data set [2] was greater than 3.3.
Consider `O=c1[nH]cnc2c1ncn2CC1CCCN(CP(=O)([O-])[O-])C1.[Na+].[Na+]` (centres undefined), for which the figures for the Ki in data set [1], in data set [3] and in data set [4] were 17 µM, 72 µM and greater than 50 µM, respectively. Besides, the entries for the “Ratio Ki” value in data set [2] and in data set [5] were greater than 2.9 and greater than 0.7, respectively.
On to `O=c1[nH]cnc2c(C3=NCCN3CCCP(=O)(O)O)c[nH]c12`, for which the Ki is 4.7 µM in data set [1], 6 µM in data set [3] and greater than 74 µM in data set [4]. Moreover, the figures for the “Ratio Ki” value in data set [2] and in data set [5] were greater than 16 and greater than 12, respectively.
